Where no end group is shown, it is not given here.
Key:
HLA-DQ7.5 = biological target: T1, HLA-DQ7.5 (Homo sapiens, UniProt P01909+P01920); experiment: MHC class II binding competition assay with radiolabeled probe peptide; conditions: competition with MHC class II bound radiolabeled probe peptide, purified MHC, 2-4 days incubation
T1 construct: made in house
Procedure: In-vitro testing of modified gluten peptides was performed by a Major histocompatibility complex (MHC class II) binding assay (Sidney J. et. al. Current protocols in immunology 100.1 (2013)). Briefly, competition assays using different concentrations of WT and modified low molecular weight glutenin subunit (LMW-GS) peptides were conducted by diluting the peptides in NP40 buffer, and incubation for 2-4 days with purified MHC and a radiolabeled known MHC binding peptide (peptide probe). MHC class II molecules were purified by affinity chromatography, and peptides were radiolabeled using the chloramine T method. After the incubation period, the bound and unbound radiolabeled species were separated, and their relative amounts were determined by either size-exclusion gel-filtration chromatography or monoclonal antibody capture of MHC. The percentage of bound radioactivity was then determined. For each modified peptide, IC50 of WT and modified peptide were calculated. The known gluten peptide epitopes were analyzed for MHC binding as a positive control, both in the non-deamidated and in the deamidated form.
Tables I and II list the measured IC50 values from competition assays between the specified peptides and an MHC class II bound probe peptide.

HLA-DQ8 = HLA-DQ8 (Homo sapiens, UniProt P01909+P01920, A209T/A45G/C70Q/D89A/DUP78-78/E183D/E77G/F237L/G63E/H199R/I129T/K197E/L178F/L74F/L98V/Q57E/Q76R/S185I/S97I/T217I/T49S/V73L/Y58L); experiment: as above; conditions: competition with MHC class II bound radiolabeled probe peptide, purified MHC, 2-4 days incubation
HLA-DQ2.2 = HLA-DQ2.2 (Homo sapiens, UniProt P01909+P01920, A45G/A70V/C70K/D167G/D89A/E106A/E183D/E77G/E98D/F237L/F77L/G63E/H199R/I129T/K197E/L107V/L178F/L74F/N214S/P84L/P87L/Q57E/Q76R/R75H/S185I/S97I/T103K/T109R/T172A/T60S/V73L/V78E/V99I/Y48F/Y58L/Y62S/Y69I/Y79F); experiment: as above; conditions: competition with MHC class II bound radiolabeled probe peptide, purified MHC, 2-4 days incubation
HLA-DQ2.5 = HLA-DQ2.5 (Homo sapiens, UniProt P01909+P01920, A45G/A70V/D89A/E106A/E77G/E98D/H199R/L107V/N214S/P84L/P87L/T103K/T109R/T172A/T60S/V78E/V99I/Y58L/Y62S/Y69I/Y79F); experiment: as above; conditions: competition with MHC class II bound radiolabeled probe peptide, purified MHC, 2-4 days incubation
HLA-DQ8 (human) = experiment: competition with radiolabeled probe peptide, purified MHC class II
HLA-DQ2.2 (human) = experiment: as above
HLA-DQ2.5 (human) = experiment: as above

Molecule	IC50 (HLA-DQ7.5)	IC50 (HLA-DQ8)	IC50 (HLA-DQ2.2)	IC50 (HLA-DQ2.5)	IC50 (HLA-DQ8 (human))	IC50 (HLA-DQ2.2 (human))	IC50 (HLA-DQ2.5 (human))
QGPPFSKQTQPVIPQ [SEQ ID NO: 72]	> 40 µM	> 40 µM	> 40 µM	> 40 µM			
QPPDSHQQHSPGSQQ [SEQ ID NO: 84]	> 40 µM	> 40 µM	> 40 µM	> 40 µM			
QPPSSEQQHSPPSQQ [SEQ ID NO: 81]	> 40 µM	31.9 µM	39.8 µM	> 40 µM			
QPSFSRQQKQPQSQQ [SEQ ID NO: 86]	> 40 µM	> 40 µM	> 40 µM	> 40 µM			
QQPAFSRQHQPSLPQ [SEQ ID NO: 73]	> 40 µM						
QQPFPEQQRSQFSQQ [SEQ ID NO: 85]	> 40 µM	35.8 µM	> 40 µM	> 40 µM			
QQPPFPRQHQQFPQQ [SEQ ID NO: 74]	> 40 µM	> 40 µM	> 40 µM	> 40 µM			
QQPPFSHQRPPFSQQ [SEQ ID NO: 70]	> 40 µM	39.1 µM	> 40 µM	> 40 µM			
QQPPFSKQEQQQPIL [SEQ ID NO: 71]	> 40 µM	29.8 µM	> 40 µM	> 40 µM			
QQPPSSEQEHSPPSQ [SEQ ID NO: 79]	> 40 µM						
QQSPFPEQEQQHQQL [SEQ ID NO: 183]	> 40 µM	39.9 µM	> 40 µM	32.4 µM			
QQSPFSRQEKSPFSQ [SEQ ID NO: 78]	> 40 µM	> 40 µM	> 40 µM	> 40 µM			
QSPFSRQQKSPFSQQ [SEQ ID NO: 80]	> 40 µM	> 40 µM	> 40 µM	> 40 µM			

Other lines, results leading:

IC50 (HLA-DQ7.5)	IC50 (HLA-DQ8)	IC50 (HLA-DQ2.2)	IC50 (HLA-DQ2.5)	IC50 (HLA-DQ8 (human))	IC50 (HLA-DQ2.2 (human))	IC50 (HLA-DQ2.5 (human))	Molecule
> 40 µM	38.2 µM	> 40 µM	> 40 µM				GPPFSKQTEPVISQQ [SEQ ID NO: 186]
> 40 µM	> 40 µM	> 40 µM	> 40 µM				QQPPDSHQEHSPGPQ [SEQ ID NO: 187]
				39.2 µM			QPFFSHQQRSGFSQQ [… (SEQ ID NO: 83)]
				38.2 µM			GPPFSKQTEPVISQQ [… (SEQ ID NO: 186)]
				37.9 µM			QSPFPEQQEQHQQLQ [… (SEQ ID NO: 185)]
				35.8 µM			QQPFPEQQRSQFSQQ [… (SEQ ID NO: 85)]
				31.9 µM	39.8 µM		QPPSSEQQHSPPSQQ [… (SEQ ID NO: 81)]
						30.4 µM	QQPAFSRQHQPSLPQ [… (SEQ ID NO: 73)]
				31.5 µM		32.3 µM	QQPPFSEQEQPSSQQ [… (SEQ ID NO: 77)]
				29.8 µM			QQPPFSKQEQQQPIL [… (SEQ ID NO: 71)]
				39.9 µM		32.4 µM	QQSPFPEQEQQHQQL [… (SEQ ID NO: 183)]
				1.14 µM		0.158 µM	QPPFSEQQESPFSQQ [… (SEQ ID NO: 69)]
						37.4 µM	QQPPFWQHQPPFSQQ [… (SEQ ID NO: 76)]
				39.1 µM			QQPPFSHQRPPFSQQ [… (SEQ ID NO: 70)]

— US20250074955A1, “MODIFIED LOW MOLECULAR WEIGHT GLUTENIN SUBUNIT AND USES THEREOF” (Ukko Inc., priority 2022, published 2025)
